Where a chain is given by its changes, count along the chain named.
Assays:
RNase L [1] = target: T1, RNase L (Homo sapiens, UniProt Q05823); assay: RNase L dimerization in vitro by Western blotting; format: biochemical
T1 construct: made in house; host or cells: Rosetta DE3 E. coli
T1 sequence (Q05823 1-741): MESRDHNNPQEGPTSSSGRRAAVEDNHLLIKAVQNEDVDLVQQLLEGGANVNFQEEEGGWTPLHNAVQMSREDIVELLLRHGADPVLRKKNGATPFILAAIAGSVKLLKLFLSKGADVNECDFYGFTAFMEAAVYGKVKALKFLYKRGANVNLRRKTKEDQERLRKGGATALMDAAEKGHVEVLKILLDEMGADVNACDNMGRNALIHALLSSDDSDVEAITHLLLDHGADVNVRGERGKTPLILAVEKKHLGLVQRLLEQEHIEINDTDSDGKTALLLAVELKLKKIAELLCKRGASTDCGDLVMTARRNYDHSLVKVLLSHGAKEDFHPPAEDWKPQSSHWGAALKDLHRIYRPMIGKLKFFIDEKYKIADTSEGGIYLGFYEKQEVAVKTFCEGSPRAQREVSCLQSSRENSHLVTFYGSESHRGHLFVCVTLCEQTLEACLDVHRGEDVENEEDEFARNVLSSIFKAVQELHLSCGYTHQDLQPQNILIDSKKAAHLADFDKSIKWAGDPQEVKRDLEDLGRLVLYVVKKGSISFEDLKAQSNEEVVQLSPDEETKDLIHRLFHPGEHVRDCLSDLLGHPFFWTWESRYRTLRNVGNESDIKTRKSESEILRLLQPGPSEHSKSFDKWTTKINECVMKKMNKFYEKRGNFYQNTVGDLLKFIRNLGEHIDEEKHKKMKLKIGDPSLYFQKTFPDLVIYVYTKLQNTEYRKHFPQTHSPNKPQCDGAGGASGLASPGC
Experimental: The position within 2 suitable for conjugation was then determined. […] Therefore, this position was derivatized and assessed for RNase L activation. […] A polyethylene glycol (PEG) linker terminated with a t-butyl ester was attached to yield 5 (FIG. 2C).

RNase L [2] = target: T1, RNase L; assay: FRET-based in vitro RNA cleavage assay (RNase L activation); format: biochemical; settings: for Relative RNA Cleavage (cleavage of fluorescently labeled RNA, RNase L activation): dose response, fluorescence normalized to 50 μM of 6
Description: The four compounds with the highest confidence (enrichment scores>300 and copy number>25) were selected for further study. The compounds were re-synthesized without the encoding DNA tag and were studied for RNase L activation using a fluorescence-based in vitro assay, completed as previously described.^16 In brief, the assay uses an dually labeled RNA [5′ fluorescein (6-FAM) and 3′ black hole quencher (BHQ)] that harbors multiple preferred substates for RNase L (FIG. 2A).^16 In the presence of a binder that activates RNase L, the enzyme cleaves the RNA, resulting in an increased fluorescence signal. […] 2 and 3 are similar in structure, differing only by the first building block, phenylglycine in 2 and indoline in 3 (FIG. 2C).
FRET-Based In Vitro RNA Cleavage Assay. Samples were prepared as previously described.^3 Briefly, an RNA construct with multiple preferred RNase L cleavage sites^7 (5′ 6-FAM-[…]-3′ BHQ; 100 nM final concentration) was folded in 1× RNase L Assay Buffer (25 mM Tris-HCl, pH 7.4, and 100 mM NaCl) for 1 min at 95° C. followed by snap cooling on ice for 10 min. Following cooling, β-mercaptoethanol (7 mM), ATP (50 μM), and MgCl2 (1 mM) were added. Compound or DMSO (1%; vehicle) was added to the folded RNA, and the samples were incubated for 15 min. Recombinant GST-RNase L-His was then added to the solution (50 nM final concentration), affording a total volume of 33 μL. Technical triplicates (10 μL) were dispensed into 384-well low volume non-binding plate (Corning 4515), and the samples were incubated in the dark for 1 h. Fluorescence was measured using a Tecan infinite M1000 Pro plate reader using an excitation wavelength of 485 nm, emission wavelength of 520 nm, and gain of 100. Data are reported as “Relative RNA Cleavage”, normalizing fluorescence to the highest level of cleavage observed—upon addition of 50 μM of 6, which was set to 1.

pre-miR-21 and RNase L = target: T2, pre-miR-21 and RNase L (Homo sapiens, UniProt Q05823, H672N); assay: Co-immunoprecipitation of pre-miR-21 and RNase L; format: binding; settings: WT 32P-pre-miR-21, inactive RNase L
T2 construct: GST (N, cleaved yes); made in house; host or cells: BL21 AI Escherichia coli
T2 sequence (Q05823 1-741 H672N): T1 sequence (Q05823 1-741) with H672N
Experimental: (§1) Co-Immunoprecipitation of pre-miR-2I and RNase L. Approximately 20,000 cpm of 32P 5′-end labeled WT or mutant pre-miR-21 or an RNA construct where the A-bulge was mutated to a base pair (5′-[…] UGGGCUGU-3′) was folded in 1× RNase L Assay Buffer for 1 min at 95° C. and cooled on ice for 10 min. Following cooling, β-mercaptoethanol (7 mM), ATP (50 μM), and MgCl2 (1 mM) were added to the solution. The solution was aliquoted, and compounds were incubated in solution for 15 min (1% DMSO final concentration). […] Beads were then washed with 1×PBS supplemented with 0.02% (v/v) Tween-20. Radioactive signal in the supernatant and associated with the beads was quantified by a Beckman Coulter LS6500 Liquid Scintillation Counter. Relative RNA enrichment was calculated by comparing the radioactive signal associated with beads compared to the total radioactive signal from the beads plus the supernatant.

[3] = target: T3, pre-miR-21 mutant and RNase L (Homo sapiens, UniProt Q05823, H672N); assay: Co-immunoprecipitation of mutant pre-miR-21 and RNase L; format: binding; settings: base paired mutant pre-miR-21, inactive RNase L
T3 construct: GST (N, cleaved yes); made in house; host or cells: BL21 AI Escherichia coli
T3 sequence (Q05823 1-741 H672N): T1 sequence (Q05823 1-741) with H672N
Experimental: as §1

RNase L [4] = target: T4, RNase L (Homo sapiens, UniProt Q05823, H672N); assay: Circular dichroism (CD) spectroscopy; format: binding; settings: 10 μM inactive RNase L, 75 μM compound
T4 construct: GST (N, cleaved yes); made in house; host or cells: BL21 AI Escherichia coli
T4 sequence (Q05823 1-741 H672N): T1 sequence (Q05823 1-741) with H672N
Experimental: (§2) To assess further the ability of this compound to bind to RNase L, saturation transfer difference (STD) nuclear magnetic resonance (NMR)^20 and circular dichroism (CD) spectroscopic studies were conducted with 6, a compound similar in structure to 5 and a potential intermediate in the synthesis of a resulting RiboTAC (FIGS. 2C & 6B-6C).
Circular Dichroism (CD) Spectroscopy. […] CD wavelength scans were completed from 190 to 260 nm. […] The spectra were plotted and compared in GraphPad Prism.

RNase L [5] = target: T4, RNase L; assay: Saturation transfer difference (STD) NMR; format: binding; settings: 3 μM protein, 300 μM compound
Experimental: as §2
(§3) Saturation Transfer Difference (STD) NMR. NMR spectra were acquired at 25° C. on a 600 MHz Bruker Avance III spectrometer equipped with a cryoprobe. Samples were prepared by drying 6 (120 nmol) to a solid and resuspending in deuterated DMSO (4 μL). […] The STD spectra were recorded as an interleaved experiment (n=2) with one experiment including a saturating pulse at −40 ppm for 2 s and one at 0.8 ppm for 2 s. Both spectra were processed with identical phasing before calculating the difference spectra (A) using TopSpin 4.0.6 (Bruker).

lysozyme = assay: Saturation transfer difference (STD) NMR, control protein; format: binding; settings: 3 μM protein, 300 μM compound
Experimental: as §2, §3

[6] = test system: phosphorylation of extracellular signal-regulated kinase (ERK); assay: Western blot of pERK versus ERK (RTK signaling); format: cell-based; settings: Homo sapiens; CRISPR-Control sgRNA MDA-MB-231 cells; read-out: IC50 for inhibition of phosphorylation of ERK
Experimental: Quantification of Protein Levels by Western Blotting. MDA-MB-231 cells were treated as described in “Cell Culture.” After treatment, the medium was removed, and the cells were washed with 1× Dulbecco's phosphate-buffered saline (DPBS). Total protein was extracted using Mammalian Protein Extraction Reagent (M-PER, Thermo Scientific) according to the manufacturer's protocol. Protein concentration was measured using a Pierce Micro BCA Protein Assay kit (Fisher Scientific). Approximately 20 μg total protein was loaded onto a Tris-glycine gel with a 5% polyacrylamide stacking layer and a 10% polyacrylamide resolving layer. The gel was run at 140 V for ˜1.5 h in 1× Running Buffer (25 mM Tris base, pH 8.3, 190 mM glycine, and 0.1% (w/v) SDS). After electrophoresis, the protein was transferred to a PVDF membrane using 1× Transfer Buffer (25 mM Tris base, pH 8.3, 190 mM glycine, and 20% (v/v) methanol). The membrane was then washed with 1×TBST (Tris-buffered saline with 0.1% (v/v) Tween 20) and blocked in a solution of 5% (w/v) milk in 1×TBST for 30 min with shaking at room temperature. The membrane was then incubated overnight at 4° C. in a solution of primary antibody diluted in 1×TBST containing 5% (w/v) milk. […]

## CCCCCCCCc1ccsc1-c1cccc(-c2ccc(CN(C)[C@H](C(=O)NC)c3ccccc3)cc2)c1 [Compound 2, (S)—N-methyl-2-(methyl((3′-(3-octylthiophen-2-yl)-[1,1′-biphenyl]-4-yl)methyl)amino)-2-phenylacetamide]
RNase L [1]
  RNase L dimerization: induces RNase L dimerization
RNase L [2]
  Relative RNA Cleavage (cleavage of fluorescently labeled RNA, RNase L activation): induced dose-dependent RNA cleavage to a greater extent than 1

## CNC(=O)[C@H](c1ccccc1)N(C)Cc1ccc(-c2cccc(-c3sccc3N)c2)cc1 [Compound 4, (S)-2-(((3′-(3-aminothiophen-2-yl)-[1,1′-biphenyl]-4-yl)methyl)-(methyl)amino)-N-methyl-2-phenylacetamide]
RNase L [2]
  Relative RNA Cleavage (cleavage of fluorescently labeled RNA, RNase L activation): enhanced RNA cleavage compared to 2

## CNC(=O)[C@H](c1ccccc1)N(C)Cc1ccc(-c2cccc(-c3sccc3NC(=O)CCOCCOCCOCCC(=O)OC(C)(C)C)c2)cc1 [Compound 5, tert-butyl (S)-3-(2-(2-(3-((2-(4′-((methyl(2-(methylamino)-2-oxo-1-phenylethyl)-amino)methyl)-[1,1′-biphenyl]-3-yl)thiophen-3-yl)amino)-3-oxopropoxy)ethoxy)-ethoxy) propanoate]
RNase L [2]
  Relative RNA Cleavage (cleavage of fluorescently labeled RNA, RNase L activation): retained RNase L activation activity

## CNC(=O)[C@H](c1ccccc1)N(C)Cc1ccc(-c2cccc(-c3sccc3NC(=O)CCOCCOCCOCCC(=O)O)c2)cc1 [Compound 6, (S)-3-(2-(2-(3-((2-(4′-((methyl(2-(methylamino)-2-oxo-1-phenylethyl)amino)methyl)-[1,1′-biphenyl]-3-yl)thiophen-3-yl)amino)-3-oxopropoxy)ethoxy)ethoxy)propanoic acid]
pre-miR-21 and RNase L
  co-immunoprecipitation of RNA with RNase L: Neither RNA was pulled down
[3]
  co-immunoprecipitation of RNA with RNase L: Neither RNA was pulled down
RNase L [4]
  CD signal of RNase L upon addition of compound: increase in signal intensity at 220 nm
RNase L [5]
  STD-NMR transfer of magnetization: transfer of magnetization from the compound to RNase L
lysozyme
  STD-NMR transfer of magnetization: no transfer was observed
RNase L [2]; 50 μM, highest level of cleavage observed, set to 1
  Relative RNA Cleavage: 1

## CN1CCN(c2ccc3nc(-c4c(N)c5c(F)cccc5[nH]c4=O)[nH]c3c2)CC1 [Dovitinib, reference compound]
[6]
  IC50: ~1000 nM

Reference: US20260167614A1, “IDENTIFICATION OF SMALL MOLECULES THAT RECRUIT AND ACTIVATE RNASE L” (UNIVERSITY OF FLORIDA RESEARCH FOUNDATION, INCORPORATED, priority 2022, published 2026)
